In data set [1] the target is T1, N-type calcium channels in IMR-32 cells (Homo sapiens, UniProt Q00975).
T1 construct: host or cells: IMR-32 cells differentiated with dibutyryl cAMP and bromodeoxyuridine
As to the kind of experiment: N-type Ca2+ channel blocking potency in IMR-32 cells using Indo-1. The data set is classed as cell-based. The following applies: IMR-32, IMR-32 cells. Here is the method:
Measurement of N-type Ca^2+ Channel Blocking Potencies of Compounds in IMR-32 Cells Using the Fluorescent Ca^2+ Indicator Indo-1
IMR-32 cells are a human tumoral cell line of neural origin. […] Calcium flux into these cells may be induced by stimulation with elevated potassium concentrations. The L-channel component of calcium flux may be blocked by adding 5 μM nitrendipine. The remaining component of calcium entry into the IMR-32 cells is due to calcium flux through N-type calcium channels. Intracellular calcium concentrations are measured using the fluorescent calcium indicator Indo-1. The effect of drug concentration on calcium uptake is studied.
The IMR-32 cell line was obtained from the American Type Culture Collection (Rockville, Md.). Cells were grown in Eagle's Minimum Essential Medium with Earle's salts supplemented with 10% fetal bovine serum, 2 mM L-Gln and antibiotic/antimycotic mixture (Gibco). At approximately 80% confluency, differentiation was induced by the addition of 1 mM dibutyryl cAMP and 2.5 μM bromodeoxyuridine to the medium. After 7 to 13 days of differentiation, cells were detached using 0.5 mM EDTA and loaded with 5 μM Indo-1 acetoxymethyl ester (Molecular Probes, Eugene, Oreg.) at 30° C. for 45 minutes. Loaded cells were washed twice, resuspended (˜10^7 cells/mL) in assay buffer (10 mM HEPES/Tris pH 7.4 in Hank's Balanced Salt Solution without bicarbonate or phenol red containing 0.5% bovine serum albumin) and kept on ice until use. Fluorescence measurements were carried out in a Photon Technology International (PTI, South Brunswick, N.J.) Model RF-F3004 spectrofluorometer with dual emission monochromators using excitation at 350 nm and emission at 400 and 490 nm. The instrument was equipped with a thermostated cuvette holder with stirring capabilities as well as with a computer-controlled pump which allowed for reagent addition during measurement. Instrument control and data collection was done by PTI's OSCAR software running on an IBM compatible computer. Different concentrations of the test compounds (60 μL in dimethyl sulfoxide) were added to 5.94 mL of assay buffer containing approximately 3×10^6 loaded cells, and 5 μM Nitrendipine (in 30 μL EtOH) to block L-type Ca^2+ channels. Samples were incubated for 10 minutes at 30° C. and the aliquot into three 10×10 mm disposable acrylic cuvettes. Emission signals at 400 and 490 nm were acquired from each cuvette at 30° C. for 50 seconds. At 20 seconds after the start of reading, cells were depolarized by the addition of 160 μL of stimulation solution (1 M KCl, 68 mM CaCl2) to the cuvette via the computer-controlled pump. Ratio of dual emission signals (400/490 nm), which is proportional to intracellular Ca^2+ concentration, was plotted against time, and the difference between maximal response after stimulation and basal value (before stimulation) was determined. Values obtained in this way were plotted as a function of drug concentration. IC50 values of test compounds were calculated by fitting a four-parameter logistic function to the data using the least squares method.

Data set [2] deals with T2, L-type calcium channels in A10 cells (Rattus norvegicus, UniProt P22002).
T2 construct: which endogenously expresses L-type calcium channels; host or cells: A10 rat embryonic thoracic aorta smooth muscle cells
The data set is described as follows: L-type Ca2+ channel blocking potency in A10 cells (FLIPR). The class given is cell-based. To be noted: read-out: FLPA10 IC50. As for the experimental part: Measurement of L-type Ca^2+ Channel Blocking Potencies of Compounds in A10 Cells
Calcium flux through voltage-sensitive calcium channels was assessed by time-resolved monitoring of the fluorescence of pre-loaded calcium-sensitive dyes using FLIPR, a fluorescent image plate reader (Molecular Devices Co.). The A10 smooth muscle cell line derived from embryonic thoracic aorta of the DBIX rat (ATCC, CRL-1476) which endogenously expresses L-type calcium channels. The growth media for A10 cells was Ham's F12/DME high glucose (Irvine Scientific, 9052), supplemented with 20% fetal bovine serum (HyClone Labs, A-1115-L), and 1% each of L-glutamine and antibiotic-antimycotic (same source as above).
Cells were grown to confluency and replated on black-sided 96-well plates (Costar, 3603) for use in FLIPR. Two days after replating, growth media was removed and cells were loaded at 37° C. with 100 μL media containing 1 μM Oregon Green 488 Bapta-1 dye (Molecular Probes, O-6807) for 1 to 3 hours. The dye-containing media was then washed away with buffer (composition in mM: 1.25 CaCl2, 1.2 MgSO4, 11 glucose, 10 HEPES, 3.0 KCl, 137.0 NaCl, pH 7.4 with Tris base) in a Denley Cellwash (Labsystems, CW018B). The residual buffer volume was adjusted to 50 μL. A 5 minute drug-pre-incubation period at 35° C. was initiated when 50 μL of drug-containing buffer was pipetted into the cell plate with the 96-well pipettor integrated in the FLIPR apparatus. Fluorescent counts were monitored at 20 second intervals for 360 seconds, beginning 60 seconds prior to the delivery of drug-containing buffer. Following drug addition, 100 μL aliquots of a high K^+, depolarizing stimulus (composition in mM: 1.25 CaCl2, 1.2 MgSO4, 11 glucose, 10 HEPES, 140.0 KCl, pH 7.4 with Tris base) were added to each well, and fluorescence was monitored at 1 second intervals for 120 seconds beginning 10 seconds prior to the stimulus addition. CCD camera exposure time was 0.4 seconds, laser excitation was at 488 nm with a power of 0.2-0.5W, and a 510 to 560 nm bandpass interference filter preceded the camera.
Data was analyzed as a summation of fluorescent counts above basal during the stimulation period (an approximation of area under the curve), after normalizing the data with a spatial uniformity correction (for variations in laser illumination and cell density) and a negative control correction (zero calcium increase defined as the fluorescence reading in the presence of saturating pharmacologic block of the respective calcium channel). Drug effects were expressed as percent inhibition of fluorescence from an average of 8 K^+-stimulated wells which were pre-treated in the drug incubation period with buffer only. In the A10 cells, the pharmacologic agent used to define zero calcium influx was nitrendipine (RBI, N-144) at a final concentration of 1.0×10^−6 M.

Counter-ions that a name gives are not always drawn.

T1 sequence (Q00975 whole entry): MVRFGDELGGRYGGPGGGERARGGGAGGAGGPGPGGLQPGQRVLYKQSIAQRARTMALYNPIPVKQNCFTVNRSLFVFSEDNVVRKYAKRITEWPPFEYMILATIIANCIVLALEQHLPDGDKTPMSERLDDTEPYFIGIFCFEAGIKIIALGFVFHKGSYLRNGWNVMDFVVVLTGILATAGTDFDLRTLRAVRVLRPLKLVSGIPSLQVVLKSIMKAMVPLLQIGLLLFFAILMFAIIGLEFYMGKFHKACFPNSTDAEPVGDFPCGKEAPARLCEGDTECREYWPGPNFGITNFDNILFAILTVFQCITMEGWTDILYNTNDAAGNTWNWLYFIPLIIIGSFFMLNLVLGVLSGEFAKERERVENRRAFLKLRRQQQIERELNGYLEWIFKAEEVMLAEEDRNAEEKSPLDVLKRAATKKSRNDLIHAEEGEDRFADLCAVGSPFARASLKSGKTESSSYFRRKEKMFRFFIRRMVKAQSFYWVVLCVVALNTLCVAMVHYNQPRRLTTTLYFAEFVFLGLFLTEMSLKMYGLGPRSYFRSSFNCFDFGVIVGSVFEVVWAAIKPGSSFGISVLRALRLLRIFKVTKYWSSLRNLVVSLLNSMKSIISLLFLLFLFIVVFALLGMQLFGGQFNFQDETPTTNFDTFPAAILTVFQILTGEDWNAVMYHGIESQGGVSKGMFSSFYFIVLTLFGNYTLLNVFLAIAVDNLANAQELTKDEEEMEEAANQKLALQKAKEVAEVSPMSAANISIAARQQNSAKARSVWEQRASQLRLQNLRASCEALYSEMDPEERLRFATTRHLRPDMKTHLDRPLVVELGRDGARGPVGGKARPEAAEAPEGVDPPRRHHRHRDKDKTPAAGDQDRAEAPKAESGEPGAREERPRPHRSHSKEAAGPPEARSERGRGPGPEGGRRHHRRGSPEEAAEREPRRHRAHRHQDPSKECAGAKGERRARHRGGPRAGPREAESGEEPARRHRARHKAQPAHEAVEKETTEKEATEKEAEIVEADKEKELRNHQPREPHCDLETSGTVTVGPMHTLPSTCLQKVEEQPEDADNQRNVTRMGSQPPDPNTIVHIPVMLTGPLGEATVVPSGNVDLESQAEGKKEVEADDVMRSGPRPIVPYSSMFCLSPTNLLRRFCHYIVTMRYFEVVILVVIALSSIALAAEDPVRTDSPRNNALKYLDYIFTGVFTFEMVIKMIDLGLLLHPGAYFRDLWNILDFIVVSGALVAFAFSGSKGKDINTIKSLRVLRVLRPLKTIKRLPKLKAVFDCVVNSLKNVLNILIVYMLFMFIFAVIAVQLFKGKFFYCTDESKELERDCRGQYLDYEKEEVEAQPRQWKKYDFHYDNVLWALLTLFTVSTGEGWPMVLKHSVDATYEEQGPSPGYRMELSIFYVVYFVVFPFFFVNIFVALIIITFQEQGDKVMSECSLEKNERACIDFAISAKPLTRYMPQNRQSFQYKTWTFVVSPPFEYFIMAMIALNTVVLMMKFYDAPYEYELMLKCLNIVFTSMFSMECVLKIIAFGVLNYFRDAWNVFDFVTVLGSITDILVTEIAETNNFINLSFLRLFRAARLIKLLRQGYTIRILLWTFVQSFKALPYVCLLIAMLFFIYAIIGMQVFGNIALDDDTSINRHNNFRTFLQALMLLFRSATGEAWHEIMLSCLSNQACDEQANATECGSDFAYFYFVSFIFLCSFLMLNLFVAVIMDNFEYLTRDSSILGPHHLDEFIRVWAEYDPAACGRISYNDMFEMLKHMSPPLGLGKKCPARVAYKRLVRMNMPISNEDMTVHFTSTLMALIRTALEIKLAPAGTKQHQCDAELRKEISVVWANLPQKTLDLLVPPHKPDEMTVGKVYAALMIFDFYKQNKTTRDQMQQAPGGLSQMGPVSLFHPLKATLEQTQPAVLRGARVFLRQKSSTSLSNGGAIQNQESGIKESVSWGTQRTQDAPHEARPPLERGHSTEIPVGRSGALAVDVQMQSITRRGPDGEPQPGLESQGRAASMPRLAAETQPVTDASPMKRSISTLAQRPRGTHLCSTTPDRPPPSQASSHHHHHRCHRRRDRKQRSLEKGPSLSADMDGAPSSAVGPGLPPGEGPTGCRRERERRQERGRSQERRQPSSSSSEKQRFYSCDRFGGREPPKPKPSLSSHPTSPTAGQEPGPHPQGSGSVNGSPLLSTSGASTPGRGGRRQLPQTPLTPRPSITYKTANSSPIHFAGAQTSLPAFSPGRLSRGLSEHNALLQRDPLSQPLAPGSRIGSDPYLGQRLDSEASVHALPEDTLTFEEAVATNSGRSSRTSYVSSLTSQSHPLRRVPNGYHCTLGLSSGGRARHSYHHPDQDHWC
T1 sequence (P54289 25-956 partner limits assumed): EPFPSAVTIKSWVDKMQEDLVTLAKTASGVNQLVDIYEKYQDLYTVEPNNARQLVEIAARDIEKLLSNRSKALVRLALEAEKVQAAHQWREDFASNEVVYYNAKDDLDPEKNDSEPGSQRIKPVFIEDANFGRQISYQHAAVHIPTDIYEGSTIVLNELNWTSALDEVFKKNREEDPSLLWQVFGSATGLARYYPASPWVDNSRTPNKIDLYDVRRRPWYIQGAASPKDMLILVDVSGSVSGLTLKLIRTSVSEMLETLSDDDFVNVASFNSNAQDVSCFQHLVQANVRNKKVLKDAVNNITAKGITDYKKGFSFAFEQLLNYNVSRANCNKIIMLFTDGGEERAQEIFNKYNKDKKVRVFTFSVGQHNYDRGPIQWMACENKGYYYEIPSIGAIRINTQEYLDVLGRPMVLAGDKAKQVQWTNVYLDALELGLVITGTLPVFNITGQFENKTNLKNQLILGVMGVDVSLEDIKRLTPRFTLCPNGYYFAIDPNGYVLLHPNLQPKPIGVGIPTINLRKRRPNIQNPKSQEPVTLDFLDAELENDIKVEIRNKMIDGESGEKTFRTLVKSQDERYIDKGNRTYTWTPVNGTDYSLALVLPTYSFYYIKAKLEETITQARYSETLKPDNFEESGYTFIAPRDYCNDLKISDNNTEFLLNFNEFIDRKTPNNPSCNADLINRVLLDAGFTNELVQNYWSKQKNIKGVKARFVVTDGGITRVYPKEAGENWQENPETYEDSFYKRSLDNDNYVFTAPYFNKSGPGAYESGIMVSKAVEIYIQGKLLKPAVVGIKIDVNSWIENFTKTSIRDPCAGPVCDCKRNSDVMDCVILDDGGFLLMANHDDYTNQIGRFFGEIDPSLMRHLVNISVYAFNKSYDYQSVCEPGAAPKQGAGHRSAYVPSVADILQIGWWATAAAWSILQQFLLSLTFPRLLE
T1 sequence (P54289 957-1103 partner limits assumed): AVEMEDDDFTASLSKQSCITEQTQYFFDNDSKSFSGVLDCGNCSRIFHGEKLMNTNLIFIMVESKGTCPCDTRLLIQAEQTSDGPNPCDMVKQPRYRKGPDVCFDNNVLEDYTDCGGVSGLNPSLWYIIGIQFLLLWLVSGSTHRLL
T1 sequence (Q02641 whole entry partner): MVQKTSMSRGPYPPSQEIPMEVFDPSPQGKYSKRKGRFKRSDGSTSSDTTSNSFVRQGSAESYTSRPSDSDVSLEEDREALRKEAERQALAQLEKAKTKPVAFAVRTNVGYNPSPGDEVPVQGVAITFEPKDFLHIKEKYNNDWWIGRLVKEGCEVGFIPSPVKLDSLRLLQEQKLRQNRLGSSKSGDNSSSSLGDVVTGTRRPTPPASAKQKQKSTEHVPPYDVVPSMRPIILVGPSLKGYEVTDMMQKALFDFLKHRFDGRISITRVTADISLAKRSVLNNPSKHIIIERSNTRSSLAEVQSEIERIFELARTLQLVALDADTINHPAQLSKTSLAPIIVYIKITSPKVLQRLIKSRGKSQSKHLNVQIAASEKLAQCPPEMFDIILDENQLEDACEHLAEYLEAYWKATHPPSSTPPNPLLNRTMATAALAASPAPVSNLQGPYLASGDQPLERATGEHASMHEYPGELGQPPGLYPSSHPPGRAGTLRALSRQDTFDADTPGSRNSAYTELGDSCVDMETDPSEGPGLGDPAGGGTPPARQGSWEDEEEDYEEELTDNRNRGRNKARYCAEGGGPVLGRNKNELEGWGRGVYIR

`CC(C)=CCN(C)[C@@H](CC(C)C)C(=O)NCCCC(c1ccc(F)cc1)c1ccc(F)cc1` (as salt: hydrochloride) [Example 13, (S)-4-Methyl-2-[methyl-(3-methyl-but-2-enyl)-amino]-pentanoic acid [4,4-bis-(4-fluoro-phenyl)-butyl]-amide monohydrochloride] displayed a melting point of 55 to 68 °C.
`CC(C)C[C@H](NC(C)C)C(=O)NCCCC(c1ccc(F)cc1)c1ccc(F)cc1` (as salt: hydrochloride) [Example 19, (S)-2-Isopropylamino-4-methyl-pentanoic acid [4,4-bis-(4-fluoro-phenyl)-butyl]-amide monohydrochloride]: the melting point lay in the range of 100 to 103 °C.
Turning to `CC(C)C[C@@H](C(=O)NCCCC(c1ccc(F)cc1)c1ccc(F)cc1)N(C)C` (as salt: hydrochloride) [Example 20, (S)-2-Dimethylamino-4-methyl-pentanoic acid [4,4-bis-(4-fluoro-phenyl)-butyl]-amide monohydrochloride], the melting point lay within 60 to 72 °C.
In turn, `CC(C)C[C@@H](C(=O)NCCCC(c1ccc(F)cc1)c1ccc(F)cc1)N(C)C1CCCCC1` (as salt: hydrochloride) [Example 21, (S)-2-(Cyclohexyl-methyl-amino)-4-methyl-pentanoic acid [4,4-bis-(4-fluoro-phenyl)-butyl]-amide monohydrochloride] displayed a melting point of 73 to 83 °C.
The molecule `CC(C)C[C@@H](C(=O)NCCCC(c1ccc(F)cc1)c1ccc(F)cc1)N1CCOCC1` (as salt: hydrochloride) [Example 23, (S)-4-Methyl-2-morpholin-4-yl-pentanoic acid [4,4-bis-(4-fluoro-phenyl)-butyl]-amide monohydrochloride] displayed a melting point of 63 to 78 °C.
As to `CC(C)C[C@@H](C(=O)NCCC(c1ccccc1)c1ccccc1)N(C)C1CCCCC1` (as salt: hydrochloride) [Example 25, (S)-2-(Cyclohexyl-methyl-amino)-4-methyl-pentanoic acid (3,3-diphenyl-propyl)-amide monohydrochloride], the melting point was in the range of 67 to 86 °C.
Same read-out and setting: in the case of `CC(C)C[C@@H](C(=O)NCCCC(c1ccc(F)cc1)c1ccc(F)cc1)N(C)C1CCOCC1` (as salt: hydrochloride) [Example 27, (S)-4-Methyl-2-[methyl-(tetrahydro-pyran-4-yl)-amino]-pentanoic acid [4,4-bis-(4-fluoro-phenyl)-butyl]-amide monohydrochloride] it was 75 to 92 °C.
Still for that read-out and setting: in the case of `CC(C)C[C@H](NC(C)C)C(=O)N1CCN(C(c2ccc(F)cc2)c2ccc(F)cc2)CC1` (as salt: hydrochloride) [Example 49, (S)-1-{4-[Bis-(4-fluoro-phenyl)-methyl]-piperazin-1-yl}-2-isopropylamino-4-methyl-pentan-1-one monohydrochloride] it was 100 to 103 °C; in that of `CC(C)N[C@H](C(=O)NCCCC(c1ccc(F)cc1)c1ccc(F)cc1)C(C)C` (as salt: hydrochloride) [Example 65, (S)-N-[4,4-Bis-(4-fluoro-phenyl)-butyl]-2-isopropylamino-3-methyl-butyramide], 72 to 80 °C.
On the same count and under the same terms, for `CCC(C)N[C@H](C(=O)NCCCC(c1ccc(F)cc1)c1ccc(F)cc1)C(C)C` (stereo partly drawn) (as salt: hydrochloride) [Example 66, (S)-N-[4,4-Bis-(4-fluoro-phenyl)-butyl]-2-sec-butylamino-3-methyl-butyramide] the value was 77 to 81 °C.
Regarding `CC(C)[C@@H](C(=O)NCCCC(c1ccc(F)cc1)c1ccc(F)cc1)N(C)C1CCCCC1` [Example 69, (S)-N-[4,4-Bis-(4-fluoro-phenyl)-butyl]-2-(cyclohexyl-methyl-amino)-3-methyl-butyramide], in data set [1] (at 1 μM, read-out: IMR32 % blockage at 1 μM), the inhibition at 1 µM is 34%. The inhibition at 10 µM in data set [1] (at 10 μM, read-out: IMR32 % blockage at 10 μM) was found to be 99%. In data set [2], the IC50 came out at 400 nM.

One may read the melting point as the temperature of the solid-liquid transition. The term IC50 denotes the concentration at which inhibition is half-maximal.
